One assay addresses human IDO (Homo sapiens, UniProt P14902). Put plainly: Cell based IDO/kynurenine assay in IDO-293-T-Rex cells. The following applies: kynurenine production, 293T cell line stably expressing human IDO; values reported in ranges; read-out: hIDO EC50. As for the experimental part:
293-T-REx™ cells (Invitrogen) constitutively express a tet operator binding repressor protein and are maintained in DMEM, 10% FBS, 1× Penicillin+Streptomycin, 2 mM L-glutamine, 5 μg/mL blasticidin at 37° C. with a 5% CO2 in air atmosphere and typically split prior to confluency. Cells were passed by splitting the culture 1/10—by removing media by aspiration, washing 1× with PBS, incubating with 0.25% trypsin/EDTA until the cells detach, disbursing the cells in fresh growth media, and plating at 1/10 dilutions in fresh growth media. For long term cryopreservation, cells are detached from the plate as described above, collected by centrifugation, resuspended in freeze medium (growth medium, 10% DMSO), stored in 1.8 mL cyropreservation vials (˜2−5×10^6 cells per vial), in liquid nitrogen vapor storage tanks.
IDOl-expressing 293-T-Rex™ cell lines were generated by stable transfection of plasmid pcDNA-tetO-IDO expressing human IDO or murine IDO under the control of the doxycycline-inducible CMV-tet promoter. Transfected cells were selected in DBZ medium (DMEM, 10% FBS, 1× Penicillin+Streptomycin, 2 mM L-glutamine, 5 μg/mL blasticidin and 25 μg/ml Zeocin) at 37° C. with a 5% CO2 in air atmosphere. Individual clones were isolated by limiting dilution cloning from these populations.
[…]. The cells incubated in Neutral medium serve as negative control of the assay. The cells incubated in Induction medium and without inhibitor serve as the positive control of the assay. The incubation is carried out for 16 h at 37° C. in a cell culture incubator. 200 μL of medium are transferred to U-bottom polypropylene 96-well plates containing 25 μL of 30% TCA, incubated 30 minutes at 60° C. and centrifuged at 3400 g for 5 minutes. 150 μL of the clear supernatant is transferred to a polystyrene 96-well plate containing 50 μL of 4% (w/v) of p-dimethylaminobenzaldehyde in acetic acid, incubated for 10 min. Kynurenine concentration is determined by measuring the absorbance at 480 nm.
The conditions of the assay were as described in the examples.

Assay [1] concerns the target purified human IDO protein (Homo sapiens, UniProt P14902). The assay can be described thus: Enzymatic IDO assay (kynurenine production, absorbance 480 nm). The following applies: enzymatic activity.
[2] abbreviates: hIDO IC50, recombinant human IDO, values reported in ranges.
[3] abbreviates: hIDO IC50, Table 15, recombinant human IDO.

pEC50, pIC50: −log10 of the molar value. Read-outs that look alike come from different tables or passages of the source.

This passage reports EC50 and IC50 results from patent US20130289083A1, “IDO Inhibitors” (priority 2007, published 2013).

By pEC50 is commonly meant −log10 of the EC50, conventionally taken in molar units. Broadly, the pIC50 is the IC50 on a negative log10 scale, so that one unit is a factor of ten.

Sequence of human IDO (P14902 whole entry): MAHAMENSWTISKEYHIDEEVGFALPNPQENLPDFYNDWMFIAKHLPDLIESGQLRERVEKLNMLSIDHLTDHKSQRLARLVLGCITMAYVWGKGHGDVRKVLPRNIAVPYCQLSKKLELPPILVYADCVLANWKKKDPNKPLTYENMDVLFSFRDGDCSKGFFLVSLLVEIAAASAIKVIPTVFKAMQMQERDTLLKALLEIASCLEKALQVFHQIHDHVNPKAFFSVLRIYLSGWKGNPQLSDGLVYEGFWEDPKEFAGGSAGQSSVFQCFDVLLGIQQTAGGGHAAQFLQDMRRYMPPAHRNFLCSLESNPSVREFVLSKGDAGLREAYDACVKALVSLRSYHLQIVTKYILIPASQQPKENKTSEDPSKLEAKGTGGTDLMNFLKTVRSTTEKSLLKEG
Sequence of purified human IDO protein (P14902 whole entry P110S/E119G): as the sequence (P14902 whole entry) above, with P110S, E119G counted along it

In the case of `S=C(NCCc1c[nH]c2ccccc12)SCCc1ccccc1` [compound 1, Phenethyl 2-(1H-indol-3-yl)ethylcarbamodithioate], the pEC50 on human IDO is 3.00 to 4.00. Further, in assay [1] (setting [2]), the pIC50 was 3.00 to 4.00.
`COc1ccc(CCSC(=S)NCCc2c[nH]c3ccccc23)cc1` [compound 2, 4-Methoxyphenethyl 2-(1H-indol-3-yl)ethylcarbamodithioate]: the pEC50 at human IDO was 3.00 to 4.00. Also, the pIC50 in assay [1] (setting [2]) is 3.00 to 4.00.
On to `Fc1ccc(CCSC(=S)NCCc2c[nH]c3ccccc23)cc1` [compound 3, 4-Fluorophenethyl 2-(1H-indol-3-yl)ethylcarbamodithioate], for which the negative logarithm of the EC50 (pEC50) at human IDO is 3.00 to 4.00. Further, the pIC50 in assay [1] (setting [2]) was 3.00 to 4.00.
As to `S=C(NCCc1c[nH]c2ccccc12)SCCc1ccc(Br)cc1` [compound 4, 4-Bromophenethyl 2-(1H-indol-3-yl)ethylcarbamodithioate], the pEC50 on human IDO is 4.00 to 4.70. Besides, the pIC50 in assay [1] (setting [2]) is 3.00 to 4.00.
In the same order, the values of `CC(CSC(=S)NCCc1c[nH]c2ccccc12)c1ccccc1` (centres unmarked) [compound 6, 2-Phenylpropyl 2-(1H-indol-3-yl)ethylcarbamodithioate] are 3.00 to 4.00 and 3.00 to 4.00.
Regarding `S=C(NCCc1c[nH]c2ccccc12)SCCc1cccc(Br)c1` [compound 7, 3-Bromophenethyl 2-(1H-indol-3-yl)ethylcarbamodithioate], the pEC50 at human IDO was 3.00 to 4.00. Also, the pIC50 in assay [1] (setting [2]) was 3.00 to 4.00.
Consider `S=C(NCCc1c[nH]c2ccccc12)SCCc1cccc(Cl)c1` [compound 8, 3-Chlorophenethyl 2-(1H-indol-3-yl)ethylcarbamodithioate], for which the pEC50 at human IDO is 3.00 to 4.00. Besides, the pIC50 in assay [1] (setting [2]) was 3.00 to 4.00.
With `Cc1ccc(CCSC(=S)NCCc2c[nH]c3ccccc23)cc1` [compound 9, 4-Methylphenethyl 2-(1H-indol-3-yl)ethylcarbamodithioate], the pEC50 on human IDO is 4.00 to 4.70. In addition, in assay [1] (setting [2]), the pIC50 was 3.00 to 4.00.
For `COc1cccc(CCSC(=S)NCCc2c[nH]c3ccccc23)c1` [compound 10, 3-methoxyphenethyl 2-(1H-indol-3-yl)ethylcarbamodithioate], the pEC50 on human IDO was 3.00 to 4.00. For the same compound, in assay [1] (setting [2]), the pIC50 is 3.00 to 4.00.
Turning to `Fc1ccccc1CCSC(=S)NCCc1c[nH]c2ccccc12` [compound 12, 2-fluorophenethyl 2-(1H-indol-3-yl)ethylcarbamodithioate], the pEC50 on human IDO is 3.00 to 4.00. The pIC50 in assay [1] (setting [2]) is 3.00 to 4.00.
Turning to `CSC(=S)NCCc1cccc(Cl)c1` [compound 14], the pEC50 at human IDO was 3.00 to 4.00. The pIC50 in assay [1] (read-out: hIDO IC50, recombinant human IDO, values reported in ranges) is 3.00 to 4.00.
With `S=C(NCCc1c[nH]c2ccccc12)SCCc1ccccc1Cl` [compound 21, 2-Chlorophenethyl 2-(1H-indol-3-yl)ethylcarbamodithioate], the pEC50 on human IDO was 3.00 to 4.00. Besides, the pIC50 in assay [1] (setting [2]) was 3.00 to 4.00.
As for `COc1cc2oc(=O)cc(CSC(=S)NCCc3c[nH]c4ccccc34)c2cc1OC` [compound 23, (6,7-Dimethoxy-2-oxo-2H-chromen-4-yl)methyl 2-(1H-indol-3-yl)ethyl-carbamodithioate], the pEC50 on human IDO is 4.00 to 4.70. Besides, in assay [1] (setting [2]), the pIC50 is 3.00 to 4.00.
As to `CSC(=S)NCCCCCCc1c[nH]c2ccccc12` [compound 27, Methyl 6-(1H-indol-3-yl)hexylcarbamodithioate], at human IDO, the pEC50 was 3.00 to 4.00. For the same compound, in assay [1] (setting [2]), the pIC50 is 3.00 to 4.00.
With `NOC(CCN1CCOCC1)c1ccccc1` (centres unmarked) [compound 1929, O-(3-morpholino-1-phenylpropyl)hydroxylamine], in assay [1] (setting [3]), the negative logarithm of the IC50 (pIC50) is 3.00 to 4.00.
For `NOC(CN1CCOCC1)c1ccccc1` (centres unmarked) [compound 1936, O-(2-morpholino-1-phenylethyl)hydroxylamine], in assay [1] (setting [3]), the pIC50 is 4.00 to 5.00.
With `CNC(=O)[C@@H](ON)c1ccccc1` [compound 2033, (S)-2-(aminooxy)-N-methyl-2-phenylacetamide], the pIC50 in assay [1] (setting [3]) is over 5.00.
Still for that read-out and setting: the result for `CNC(=O)[C@H](ON)c1ccccc1` [compound 2034, (R)-2-(aminooxy)-N-methyl-2-phenylacetamide] reads 3.00 to 4.00.
